Measurements from the NIST ThermoML archive (doi:10.1016/j.jct.2009.09.007).

CCCC[n+]1ccn(C)c1.O=S(=O)([N-]S(=O)(=O)C(F)(F)F)C(F)(F)F
Conditions | surface tension liquid-gas [mN/m]
284.15 K, Wilhelmy plate method | 33.46
284.19 K, Ring tensiometer | 33.48
287.81 K, Wilhelmy plate method | 33.27
294.2 K, Wilhelmy plate method | 33.02
298.35 K, Wilhelmy plate method | 32.85
298.41 K, Ring tensiometer | 33.04
301.96 K, Wilhelmy plate method | 32.66
306.81 K, Wilhelmy plate method | 32.44
310.81 K, Wilhelmy plate method | 32.26
317.93 K, Ring tensiometer | 31.97
317.94 K, Wilhelmy plate method | 31.97
322.99 K, Wilhelmy plate method | 31.74
327.92 K, Wilhelmy plate method | 31.58
332.97 K, Wilhelmy plate method | 31.3
337.12 K, Wilhelmy plate method | 31.17
343.28 K, Wilhelmy plate method | 30.91
347.82 K, Wilhelmy plate method | 30.76
348.05 K, Ring tensiometer | 30.41
351.56 K, Wilhelmy plate method | 30.53

CCn1cc[n+](C)c1.O=S(=O)([N-]S(=O)(=O)C(F)(F)F)C(F)(F)F
Conditions | surface tension liquid-gas [mN/m]
283.16 K, Wilhelmy plate method | 36.78
283.2 K, Ring tensiometer | 37.07
287.3 K, Wilhelmy plate method | 36.58
292.6 K, Wilhelmy plate method | 36.35
297.89 K, Wilhelmy plate method | 36.13
297.95 K, Ring tensiometer | 36.12
302.66 K, Wilhelmy plate method | 35.88
308.82 K, Wilhelmy plate method | 35.61
313.3 K, Wilhelmy plate method | 35.36
317.77 K, Wilhelmy plate method | 35.14
323.16 K, Ring tensiometer | 34.81
323.19 K, Wilhelmy plate method | 34.84
327.91 K, Wilhelmy plate method | 34.66
327.97 K, Ring tensiometer | 34.73
333.82 K, Wilhelmy plate method | 34.29
333.86 K, Ring tensiometer | 34.1
337.84 K, Wilhelmy plate method | 34.06
337.88 K, Ring tensiometer | 34.09
343.6 K, Wilhelmy plate method | 33.79
346.9 K, Ring tensiometer | 33.74
346.93 K, Wilhelmy plate method | 33.66
351.54 K, Wilhelmy plate method | 33.42
351.67 K, Ring tensiometer | 33.2

CCCCCC[n+]1ccn(C)c1.O=S(=O)([N-]S(=O)(=O)C(F)(F)F)C(F)(F)F
Wilhelmy plate method
Conditions | surface tension liquid-gas [mN/m]
283.17 K | 32.34
287.86 K | 32.07
293.15 K | 31.81
298.26 K | 31.59
303.16 K | 31.34
308.99 K | 30.99
314.39 K | 30.71
318.21 K | 30.48
323.09 K | 30.26
327.93 K | 30
333.53 K | 29.8
337.7 K | 29.45
342.32 K | 29.28
347.3 K | 29.06
351.11 K | 28.91

CCCCn1cc[n+](C)c1.F[B-](F)(F)F [1-butyl-3-methylimidazolium tetrafluoroborate]
Conditions | surface tension liquid-gas [mN/m]
284.17 K, Wilhelmy plate method | 45.29
284.25 K, Ring tensiometer | 45.44
288.28 K, Wilhelmy plate method | 44.98
288.35 K, Ring tensiometer | 45.15
293.32 K, Wilhelmy plate method | 44.56
293.48 K, Ring tensiometer | 44.57
298.48 K, Wilhelmy plate method | 44.26
298.5 K, Ring tensiometer | 44.41
303.41 K, Wilhelmy plate method | 43.84
303.51 K, Ring tensiometer | 44.05
308.38 K, Wilhelmy plate method | 43.68
308.42 K, Ring tensiometer | 43.63
313.73 K, Ring tensiometer | 43.21
313.79 K, Wilhelmy plate method | 43.21
318.15 K, Wilhelmy plate method | 43
318.19 K, Ring tensiometer | 43.19
323.01 K, Ring tensiometer | 42.84
323.03 K, Wilhelmy plate method | 42.58
327.8 K, Wilhelmy plate method | 42.46
327.9 K, Ring tensiometer | 42.62
333.11 K, Wilhelmy plate method | 42.15
333.12 K, Ring tensiometer | 42.07
337.64 K, Wilhelmy plate method | 41.96
337.65 K, Ring tensiometer | 41.78
342.32 K, Ring tensiometer | 41.71
342.4 K, Wilhelmy plate method | 41.56
348.62 K, Ring tensiometer | 41.16
348.74 K, Wilhelmy plate method | 41.3
351.23 K, Wilhelmy plate method | 40.89
351.44 K, Ring tensiometer | 40.85
